Assay results reported in US7534421B2, “s-Triazine compounds bearing at least one para-aminobenzalmalonic salt substituent and photoprotective cosmetic compositions comprised thereof” (L'Oreal, priority 2003, dated 2009).
Where a name gives a salt, the structure may show the parent alone.

Test: UV absorption spectrum (λmax, εmax, E1%) of the s-triazine UV screens in solution
Assay type: physicochemical
Conditions: UV (DMSO/ethanol)

| E1% | εmax | λmax | Structure (SMILES) |
| --- | --- | --- | --- |
| E1% = 691 | εmax = 35 070 | λmax = 336 nm | O=C(O)C(=Cc1ccc(Nc2nc(O)nc(Nc3ccc(C=C(C(=O)O)C(=O)O)cc3)n2)cc1)C(=O)O [2-(4-{4-[4-(2,2-dicarboxyvinyl)phenylamino]-6-hydroxy[1,3,5]triazin-2-ylamino}benzylidene)malonic acid] |

Same assay, conditions: UV (NaOH 0.1 N)

| E1% | εmax | λmax | Structure (SMILES) |
| --- | --- | --- | --- |
| E1% = 932 | εmax = 64 960 | λmax = 320 nm | O=C(O)C(=Cc1ccc(Nc2nc(Cl)nc(Nc3ccc(C=C(C(=O)O)C(=O)O)cc3)n2)cc1)C(=O)O [2-(4-{4-chloro-6-[4-(2,2-dicarboxy-vinyl)phenylamino][1,3,5]triazin-2-ylamino}benzylidene)malonic acid] |
| E1% = 852 | εmax = 50 700 | λmax = 322 nm | O=C(O)C(=Cc1ccc(Nc2nc(O)nc(Nc3ccc(C=C(C(=O)O)C(=O)O)cc3)n2)cc1)C(=O)O [Example 5, tetrasodium salt of 2-(4-{4-[4-(2,2-dicarboxyvinyl)phenylamino]-6-hydroxy[1,3,5]triazin-2-ylamino}benzylidene)malonic acid] |

Same assay, conditions: UV (ethanol)

| E1% | εmax | λmax | Structure (SMILES) |
| --- | --- | --- | --- |
| E1% = 930 | εmax = 64 820 | λmax = 348 nm | O=C(O)C(=Cc1ccc(Nc2nc(Nc3ccc(C=C(C(=O)O)C(=O)O)cc3)nc(Nc3ccc(C=C(C(=O)O)C(=O)O)cc3)n2)cc1)C(=O)O [acid derivative of Example 1, 2-(4-[4,6-bis[4-(2,2-dicarboxyvinyl)phenylamino][1,3,5]triazin-2-ylamino}benzylidene)malonic acid] |

Same assay, conditions: UV (water)

| E1% | εmax | λmax | Structure (SMILES) |
| --- | --- | --- | --- |
| E1% = 1 043 | εmax = 86 428 | λmax = 323 nm | O=C(O)C(=Cc1ccc(Nc2nc(Nc3ccc(C=C(C(=O)O)C(=O)O)cc3)nc(Nc3ccc(C=C(C(=O)O)C(=O)O)cc3)n2)cc1)C(=O)O [Example 1, hexasodium salt of 2-(4-{4,6-bis[4-(2,2-dicarboxyvinyl)phenylamino][1,3,5]triazin-2-ylamino}benzylidene)malonic acid] |
| E1% = 1 060 | εmax = 87 820 | λmax = 323 nm | O=C(O)C(=Cc1ccc(Nc2nc(Nc3ccc(C=C(C(=O)O)C(=O)O)cc3)nc(Nc3ccc(C=C(C(=O)O)C(=O)O)cc3)n2)cc1)C(=O)O [Example 2, hexasodium salt of 2-(4-{4,6-bis[4-(2,2-dicarboxyvinyl)phenylamino][1,3,5]triazin-2-ylamino}benzylidene)malonic acid] |
| E1% = 720 | εmax = 66 600 | λmax = 324 nm | O=C(O)C(=Cc1ccc(Nc2nc(Nc3ccc(C=C(C(=O)O)C(=O)O)cc3)nc(Nc3ccc(C=C(C(=O)O)C(=O)O)cc3)n2)cc1)C(=O)O [Example 3, hexapotassium salt of 2-(4-{4,6-bis[4-(2,2-dicarboxyvinyl)phenylamino][1,3,5]triazin-2-ylamino}benzylidene)malonic acid] |
| E1% = 523 | εmax = 83 250 | λmax = 322 nm | O=C(O)C(=Cc1ccc(Nc2nc(Nc3ccc(C=C(C(=O)O)C(=O)O)cc3)nc(Nc3ccc(C=C(C(=O)O)C(=O)O)cc3)n2)cc1)C(=O)O [Example 4, hexatriethanolamine salt of 2-(4-{4,6-bis[4-(2,2-dicarboxyvinyl)phenylamino][1,3,5]triazin-2-ylamino}benzylidene)malonic acid] |
| E1% = 1 274 | εmax = 83 070 | λmax = 327 nm | O=C(O)/C=C/c1ccc(Nc2nc(Nc3ccc(C=C(C(=O)O)C(=O)O)cc3)nc(Nc3ccc(C=C(C(=O)O)C(=O)O)cc3)n2)cc1 [Example 9, pentasodium salt of 2-(4-{4-[4-(2-carboxyvinyl)phenylamino]-6-[4-(2,2-dicarboxy-vinyl)phenylamino][1,3,5]triazin-2-ylamino}benzylidene)malonic acid] |
| E1% = 963 | εmax = 69 210 | λmax = 329 nm | CC12CCC(/C(=C\c3ccc(Nc4nc(Nc5ccc(C=C(C(=O)O)C(=O)O)cc5)nc(Nc5ccc(C=C(C(=O)O)C(=O)O)cc5)n4)cc3)C1=O)C2(C)C (stereo not drawn) [Example 10, tetrasodium salt of 2-(4-{4-[4-(2-dicarboxyvinyl)phenylamino]-6-[4-(4,7,7-trimethyl-3-oxobicyclo[2.2.1]hept-2-ylidenemethyl)phenylamino][1,3,5]triazin-2-ylamino}benzylidene)malonic acid] |

Continued, compound first:

| Structure (SMILES) | E1% | εmax | λmax |
| --- | --- | --- | --- |
| COc1ccc(-c2nc(Nc3ccc(C=C(C(=O)O)C(=O)O)cc3)nc(Nc3ccc(C=C(C(=O)O)C(=O)O)cc3)n2)cc1 [Example 6, tetrasodium salt of 2-{4-[4-[4-(2,2-dicarboxyvinyl)phenylamino]-6-(4-methoxyphenyl)[1,3,5]triazin-2-ylamino]benzylidene}malonic acid] | E1% = 768 | εmax = 45 900 | λmax = 318 nm |
| CCCCOc1nc(Nc2ccc(C=C(C(=O)O)C(=O)O)cc2)nc(Nc2ccc(C=C(C(=O)O)C(=O)O)cc2)n1 [Example 7, tetrasodium salt of 2-(4-{4-butoxy-6-[4-(2,2-dicarboxyvinyl)phenylamino][1,3,5]triazin-2-ylamino}benzylidene)malonic acid] | E1% = 922 | εmax = 51 960 | λmax = 317 nm |
| CC12CCC(/C(=C\c3ccc(Nc4nc(Nc5ccc(C=C(C(=O)O)C(=O)O)cc5)nc(Nc5ccc(/C=C6/C(=O)C7(C)CCC6C7(C)C)cc5)n4)cc3)C1=O)C2(C)C [Example 11, disodium salt of 2-(4-{[4,6-bis({4-(4,7,7-trimethyl-3-oxobicyclo[2.2.1]hept-2-ylidene)methyl]phenyl}amino)[1,3,5]triazin-2-ylamino}benzylidene)malonic acid] | E1% = 1 238 | εmax = 98 170 | λmax = 353 nm |
